The series has as its system Spodoptera littoralis. In words: Insecticidal bioassay screening (castor leaf dip), laboratory strain of cotton leafworm. In kind it is in vivo. The following applies: for Toxicity index %: 72 hrs, Diflubenzuron's LC50 / the compound's LC50 × 100; for LC50: Spodoptera littoralis, foliar, 72 h. The procedure: Five concentrations (200, 100, 50, 25, 12.5 ppm) were designed for this synthetic compound and the reference Diflubenzuron compound as the dynamic ingredients based on mg/L via diluting the commercial formulation.
[…] Larvae of the second and fourth instars of each checked strain are prepared with treated leaves in gauze-covered glass containers for 72 hrs. An untreated control is made in which leaves are dipped in triton x-100 and distilled water only. Then the preserved leaves were removed & fresh, untreated leaves were provided for 72 hours. Three replicates (10 larvae each) were checked for each concentration. Daily inspection was carried out for all treatments and mortality percentages were recorded 3 days (72 hours) after treatment. The average mortality percentage was corrected employing Abbott's formula. The corrected mortality rate for each of the previously synthesized compounds is statistically calculated according to Finney (1970). Through this rate, the corresponding concentration test lines (LDP lines) are assessed.

The mark [1] stands for this setting: 2nd instar larvae, laboratory strain, after 72 hrs of treatment.
Where [2] appears, read: 4th instar larvae, laboratory strain, after 72 hrs of treatment.
The mark [3] stands for this setting: read-out: LC50 (mg/L) at 95%, 2nd instar larvae, laboratory strain, after 72 hrs of treatment.
Where [4] appears, read: read-out: LC50 (mg/L) at 95%, 4th instar larvae, laboratory strain, after 72 hrs of treatment.

In brackets after ≈: the same amount, converted by molar mass. Where two headings read alike, the source gives them in different places.

Take `O=C(NC(=S)Nc1ncccn1)c1cc([N+](=O)[O-])cc([N+](=O)[O-])c1` [Compound 1, 3,5-dinitro-N-(pyrimidin-2-ylcarbamothioyl)benzamide]: the Toxicity index % by setting is: (2nd instar larvae) 23.7%; (4th instar larvae) 33.4%. For the same molecule, the “LC50 (mg/L) at 95%” value under setting [1] was “about 190.0 mg/L”. Moreover, the “LC90 (mg/L) at 95%” value reads like this: under setting [1], 1713.2 mg/L (≈ 4920 µM); under setting [2], 4020.4 mg/L (≈ 11500 µM). Besides, the LC50 by setting is: under setting [3], 190 mg/L (≈ 546 µM); under setting [4], about 430 mg/L (≈ 1240 µM).

On to `O=C(NC(=O)c1c(F)cccc1F)Nc1ccc(Cl)cc1` [Diflubenzuron, reference compound], for which the Toxicity index % is, setting by setting: (2nd instar larvae) 100%; (4th instar larvae) 100%. In addition, the “LC90 (mg/L) at 95%” value came out at 520.0 mg/L (≈ 1670 µM) under setting [1] and 1540.5 mg/L (≈ 4960 µM) under setting [2]. Also, the LC50 reads like this: under setting [3], 45.2 mg/L (≈ 145 µM); under setting [4], 144 mg/L (≈ 464 µM).
